From publication PMC8424644, “Thermodynamic Stability and Speciation of Ga(III) and Zr(IV) Complexes with High-Denticity Hydroxamate Chelators” (Inorganic Chemistry, 2021)
Like-named read-outs stand apart in the source and are kept apart here.

Assays:
[1] = parameters: method as in ref 24 (DFOB), 2 (THPN), 25,58 (3,4,3-LI-HOPO), 25,59 (DTPA); conditions: (re)calculated from constants of original publications, pH 7.4, cL = 10 μM, cZr(IV) = 1 μM; ref 24 (DFOB), 2 (THPN), 25,58 (3,4,3-LI-HOPO), 25,59 (DTPA); cited from earlier work
[2] = parameters: method as in PMID 31940188; conditions: calculations by Holland; cited from earlier work
[3] = parameters: method as in PMID 11666621; conditions: acidic range; cited from earlier work
[4] = Fe(III)-L + Zr(IV)-NTA metal–metal competition UV–vis titrations; format: physicochemical; conditions: Fe(III)-DFOB + Zr(IV)-NTA competition
[5] = cited from earlier work; for pKa attributed to the deprotonation of a water molecule in the Zr(IV) complex: ref 24 (DFOB), 27 (EDTA)
[6] = acidic range; cited from earlier work
[7] = parameters: method as in ref 43 (DFOB), 38 (DFOE), 11 (DOTA), 54 (NOTA), 55 (H2hox), 56 (PrP9), 57 (HBED); conditions: (re)calculated from constants of original publications, pH 7.4, cL = 10 μM, cGa(III) = 1 μM; ref 43 (DFOB), 38 (DFOE), 11 (DOTA), 54 (NOTA), 55 (H2hox), 56 (PrP9), 57 (HBED); cited from earlier work
[8] = cited from earlier work
[9] = pZr calculation (ligand sequestering ability); format: physicochemical; conditions: pZr = −log[Zr(IV)free], pH 7.4, cL = 10 μM, cZr(IV) = 1 μM
From the text: (§1) Despite a large variety of PET chelators synthesized and tested in order to provide strong coordination of Ga(III) and Zr(IV) in vivo, until now it is has been hard to avoid the release of these metal ions in the body. Here we report two new Ga(III) and Zr(IV) hydroxamate chelators, designed to achieve an efficient sequestering of these metal ions but also to understand how the cyclization and the introduction of an additional hydroxamate group influences the stability of Zr(IV) complexes. Therefore, it is important to evaluate and compare the Ga(III)- and Zr(IV)-sequestering abilities of H3L1 and H4L2 with those of other chelators. However, the direct comparison of the stability constants of metal complexes is not straightforward, and other tools taking into account all the physicochemical properties of the ligands, i.e. their denticity, coordination modes, and acid–base properties, should be used.[52] In order to reliably compare the chelating abilities of H3L1 and H4L2 toward Ga(III) and Zr(IV) ions, the pM values were calculated. pFe was originally introduced by Raymond for the comparison of iron-siderophore systems;[53] pGa = −log[Ga(III)free] and pZr = −log[Zr(IV)free] were calculated at pH 7.4 with cL = 10 μM and cGa(III)/Zr(IV) = 1 μM (Table 2).

[10] = pGa calculation (ligand sequestering ability); format: physicochemical; conditions: pGa = −log[Ga(III)free], pH 7.4, cL = 10 μM, cGa(III) = 1 μM
From the text: as §1

[11] = pFe calculation (ligand sequestering ability); format: physicochemical; conditions: pH=7.4, cL=10 μM, metal 1 μM
From the text: Despite a large variety of PET chelators synthesized and tested in order to provide strong coordination of Ga(III) and Zr(IV) in vivo, until now it is has been hard to avoid the release of these metal ions in the body. Here we report two new Ga(III) and Zr(IV) hydroxamate chelators, designed to achieve an efficient sequestering of these metal ions but also to understand how the cyclization and the introduction of an additional hydroxamate group influences the stability of Zr(IV) complexes. Therefore, it is important to evaluate and compare the Ga(III)- and Zr(IV)-sequestering abilities of […] and […] with those of other chelators. […] page 15: 100 100 [ZrL4]+ [ZrL3]+ [ZrL4H ] -1 80 [ZrL3H ] 80 2+ -1 [ZrHL4] […] Experimental section. Ligands' sequestering ability Table S3. pFe values with various synthetic and biological chelators a Ligand pFe Chelating groups and ligands geometry […] 24.3 3 hydroxamate groups in a cyclic arrangement […] 23.3 4 hydroxamate groups in a linear arrangement […] 26.9 3 hydroxamate groups in a cyclic arrangement […] 23.61 3 hydroxamate groups in a linear arrangement […] DFOE 27.73 3 hydroxamate groups in a cyclic arrangement […] protonation and stability constants given in original publications; the hydrolysis constants of Fe(III) ions were taken from the literature14 and are given in the experimental section 15 (also on this page, place not known: […]

[12] = taken from the literature, cited from earlier work
[13] = taken from the literature, ref 38 (H3L3), 35 (H3L4), 36,38 (DFOE)

For `O=C(NCCCN(CCCCN(CCCNC(=O)c1cccc(=O)n1O)C(=O)c1cccc(=O)n1O)C(=O)c1cccc(=O)n1O)c1cccc(=O)n1O` [3,4,3-LI-HOPO], the pZr [1] is listed as 44.0[25],[58].

For `O=C1CCN(O)C(=O)CCCNC(=O)CCN(O)C(=O)CCCNC(=O)CCN(O)C(=O)CCCNC(=O)CCN(O)C(=O)CCCN1` [CTH36], the “log β [Zr(L)] predicted from computational calculations” value [2] is given as 52.84.

In the case of `CC(=O)N(O)CCCCCNC(=O)CCC(=O)N(O)CCCCCNC(=O)CCC(=O)N(O)CCCCCNC(=O)CCC(=O)N(O)CCCCCN` [DFO*], the “log β [Zr(L)] predicted from computational calculations” value [2] is listed as 51.56.

For `CC(=O)N(O)CCCCCNC(=O)CCC(=O)N(O)CCCCCNC(=O)CCC(=O)N(O)CCCCCN` [DFOB], the “log β [Zr(L)] predicted from computational calculations” value [2] is given as 41.20, the “pKa of the Th(IV) complex” value [3] is given as 1.9 and the pZr [1] is given as 32.2[24]. For the same compound, the “log β [ZrHDFOB]” value ([4]; spectra collected after 1h incubation) was 45.9, the “log β [ZrHDFOB]” value ([4]; spectra collected after 24h incubation) was 46.1(2) and the “log β [ZrH(DFOB)OH]” value [5] was 40.04. For the same compound, the “log β [ZrHDFOB]” value ([5]; different ionic strength) was 47.7, the “pKa attributed to the deprotonation of a water molecule in the Zr(IV) complex” value [5] was 6.36 and the “pKa1 (protonation constant of the Ga(III) complex)” value [6] was 0.78. For the same compound, the “pKa2 (protonation constant of the Ga(III) complex)” value [6] was 1.10, the pGa [7] was 21.6[43] and the “log Kamine (protonation constant of the amino group)” value [8] was 10.97.

In the case of `O=C1CCC(=O)N(O)CCCCCNC(=O)CCC(=O)N(O)CCCCCNC(=O)CCC(=O)N(O)CCCCCN1` [DFOE, desferrioxamine E, reference compound], the pGa [7] is given as 25.2[38], the pZr [9] is given as 31.0 and the “log K LH2 (ligand protonation; log K2)” value [8, 13] is given as 9.42. The “log K LH3 (ligand protonation; log K3)” value [8, 13] was 8.65, the “log K LH (ligand protonation; log K1)” value [8, 13] was 9.89 and the “log β LH (ligand protonation)” value [8, 13] was 9.89.

In the case of `O=C(O)CN1CCN(CC(=O)O)CCN(CC(=O)O)CCN(CC(=O)O)CC1` [DOTA, 1,4,7,10-tetraazacyclododecane-1,4,7,10-tetraacetic acid], the pGa [7] is given as 20.5[11].

For `O=C(O)CN(CCN(CC(=O)O)CC(=O)O)CCN(CC(=O)O)CC(=O)O` [DTPA], the pZr [1] is listed as 32.3[25],[59].

In the case of `O=C(O)CN(CCN(CC(=O)O)CC(=O)O)CC(=O)O` [EDTA, ethylenediaminetetraacetic acid], the “pKa attributed to the deprotonation of a water molecule in the Zr(IV) complex” value [5] is given as 6.2.

In the case of `Oc1cccc2ccc(CNCCNCc3ccc4cccc(O)c4n3)nc12` [H2hox], the pGa [7] is given as 28.4[55].

For `O=C1CCCCCN(O)C(=O)CCNC(=O)CCCCCN(O)C(=O)CCNC(=O)CCCCCN(O)C(=O)CCN1` [H3L3], the pZr [9] is listed as 31.5, the pGa [10] is listed as 25.4 and the “log K LH (ligand protonation; log K1)” value [8, 13] is listed as 9.89. The “log β LH (ligand protonation)” value [8, 13] was 9.89 and the pFe [11] was 26.9.

In the case of `CN(O)C(=O)CCC(=O)NCCOCC(C)(COCCNC(=O)CCC(=O)N(C)O)COCCNC(=O)CCC(=O)N(C)O` [H3L4], the pZr [9] is listed as 32.6, the pGa [10] is listed as 21.9 and the “log K LH2 (ligand protonation; log K2)” value [8, 13] is listed as 8.97. The “log K LH3 (ligand protonation; log K3)” value [8, 13] was 8.26, the “log K LH (ligand protonation; log K1)” value [8, 13] was 9.50 and the “log β LH2 (ligand protonation)” value [8, 13] was 18.47. For the same compound, the “log β LH3 (ligand protonation)” value [8, 13] was 26.73, the “log β LH (ligand protonation)” value [8, 13] was 9.50 and the “log β [FeHL]” value [12] was 29.82. For the same compound, the “log β [FeL]” value ([12]; ref 38 (H3L3), 35 (H3L4), 36,38 (DFOE)) was 27.34.

For `O=C(O)CN(CCN(CC(=O)O)Cc1ccccc1O)Cc1ccccc1O` [HBED], the pGa [7] is listed as 28.0[57].

For `O=C(O)CN1CCN(CC(=O)O)CCN(CC(=O)O)CC1` [NOTA], the pGa [7] is given as 27.4[54].

For `O=C(O)CCP(=O)(O)CN1CCN(CP(=O)(O)CCC(=O)O)CCN(CP(=O)(O)CCC(=O)O)CC1` [PrP9], the pGa [7] is listed as 23.1[56].
